Molecules are shown by their SMILES.

One series deals with PAO1-L biofilms. The experiment in a line: Biofilm viability assay, method 1 (ciprofloxacin, LIVE/DEAD, CLSM). In kind it is cell-based, Pseudomonas aeruginosa. Conditions: 6 and 24 h. How it is done:
Biofilms are bacterial communities that are highly tolerant to antibiotics.[33] […] Therefore, pharmacological interference with the pqs machinery could sensitize PA biofilms to antibiotics.[34] To evaluate this effect, PAO1-L biofilms were grown for […] in the presence of 6f (method 1). Following treatment with the broad-spectrum antibiotic ciprofloxacin (Cip), the viability of biofilm bacteria was determined using LIVE/DEAD BacLight staining and confocal laser scanning microscopy (CLSM). The effect of 6f on biofilm viability as a single treatment or in combination with subinhibitory concentration of Cip was examined at two different time points (6 and 24 h after treatment) to establish whether this PqsR antagonist enhanced the activity of the antibiotic. […] It is noteworthy that the effect was greater at 6 h treatment compared with 24 h.
Figure 6 (A) Representative CLSM 3D Z-stack images of PAO1-L biofilms after 24 h growth with or without 6f and further treatment for 6 or 24 h with no treatment (control), 6f (10 μM), ciprofloxacin (Cip: 60 μg/mL), or a combination of 6f and Cip (10 μM and 60 μg/mL, respectively). Live bacteria are depicted in green (SYTO9 dye) and dead cells are shown in red color (propidium iodide stain). (B) Biofilm viability assay. Bar chart showing PAO1-L biofilm viability quantified after treatment with different conditions for 6 or 24 h. […]

Details of series [1]: method as in PMID 33073099. The conditions noted are these: rat microsomes; cited from earlier work.
Details of series [2]: method as in PMID 33073099. The conditions noted are these: rats; intratracheal; coarse suspension; cited from earlier work.
The subject of series [3] is GFP-labeled P. aeruginosa PAO1-L biofilms. The experiment in a line: Biofilm viability assay, method 2 (tobramycin, GFP-labeled biofilm, PI). It is filed as cell-based, Pseudomonas aeruginosa. How it is done: Biofilms of PAO1-L were also tested for the impact of 6f on the potentiation of tobramycin activity (method 2).
Figure 7 Effect of 6f and tobramycin on GFP-labeled P. aeruginosa PAO1-L biofilms. (A) Representative CLSM images: (a) Untreated biofilm; (b) biofilm grown with 6f at 1 μM for 16 h; (c) biofilm treated with 100 μg/mL tobramycin for 2 or 6 h after 16 h of growth; (d) biofilm grown with 1 μM 6f and treated with (6f 1 μM), tobramycin (100 μg/mL) for 2 or 6 h after 16 h of growth. Dead cells and extracellular DNA were stained red with propidium iodide (PI). Three-dimensional (3D) sections and cross sections are shown. Scale bar represents 100 μm. (B) Quantitative analysis of biofilm biomass at different conditions of treatment compared with a solvent vehicle control.
Biofilms were cultivated on borosilicate glass coverslips in Petri dishes. P. aeruginosa strains, […], was transformed with plasmid pMMG, which constitutively expresses GFP from the Ptac promoter.[50] The tagged strain was grown at 37 °C, for 16 h, in 2 mL of RPMI-1640 (Lonza, Slough, UK), supplemented with 20 mM D-glucose (Sigma–Aldrich, Dorset, UK) and 2 μM FeCl3 (Sigma–Aldrich, Dorset, UK). Cultures were diluted 1:100 in fresh medium and allowed to grow for a further 4 h, or until an OD600 of 0.5 was reached. The mid logarithmic cultures were diluted to an OD600 of 0.01 in 25 mL of RPMI, supplemented with glucose and FeCl3, and inoculated into Petri dishes containing UV sterilized borosilicate glass coverslips (22 mm × 22 mm, thickness no1) (VWR, Lutterworth, UK). Bacterial cells were seeded at 37 ◦C under static conditions for 1.5 h, and compound 6f was supplemented to the 6f treated samples (6f, 6f + Tob samples) at a concentration of 1 μM before dishes were transferred to a shaker at 60 rpm and 37 ◦C for 16 h to form mature biofilms. Tobramycin and propidium iodide were added to the 16 h old cultures at concentrations of 100 μg/mL and 2 μM, respectively, followed by further incubation for 2 or 6 h. […]

As to `CC(C)n1c(NCC(O)COc2ccc(CC#N)cc2)nc2ccc(Cl)cc21` (centres unmarked) [Compound 6f, 2-(4-(3-((6-Chloro-1-isopropyl-1H-benzo[d]imidazol-2-yl)amino)-2-hydroxypropoxy)phenyl) Acetonitrile], the “biofilm viability, combination with ciprofloxacin” value in the series with PAO1-L biofilms (6f 10 μM + Cip 60 μg/mL) is recorded as “significant potentiation of antibiotic activity”. For the same compound, the “biofilm viability, single treatment” value in the series on PAO1-L biofilms (6f 10 μM alone) is “no significant effect”. Also, the half-life entry in series [1] is “relatively short”. For the same compound, in series [2], the “clearance from lung to plasma” value is “rapid clearance” and the systemic clearance result was “fast systemic clearance”. Besides, in series [3] (6f 1 μM + tobramycin 100 μg/mL, 2 and 6 h of incubation), the “biofilm killing, combination with tobramycin” value is “enhanced the killing”. Further, the “live cells in biofilm, combination with tobramycin” value in series [3] (6f 1 μM + tobramycin 100 μg/mL, 6 h) was “no live cells present”. For the same compound, the “viability of preformed biofilms, 6f on its own” value in series [3] (PAO1-L biofilm, 6f 1 μM) was “did not impact on the viability”.

Source of the values: paper PMC10823468, “Design, Synthesis, and Evaluation of New 1H-Benzo[d]imidazole Based PqsR Inhibitors as Adjuvant Therapy for Pseudomonas aeruginosa Infections” (Journal of Medicinal Chemistry, 2024).
